# Values quoted from earlier work, collected in patent US20080274189A1, “Organic Compounds Comprising a Glycopyrr Onium Salt” (priority 2005, published 2008).
# Conditions: aerosol formulation, single administration of a metered dose, asthma
smiles,measurement,value
"C[N+]1(C)CCC(OC(=O)C(O)(c2ccccc2)C2CCCC2)C1.[Br-] (racemic) [glycopyrrolate, 3-[(cyclopentyl-hydroxyphenylacetyl)oxy]-1,1-dimethylpyrrolidinium bromide]",duration of bronchodilation,up to 12 hours
